Measurements published in patent publication US20250066350A1, “AROMATIC HETEROCYCLE-SUBSTITUTED COMPOUNDS, AND PREPARATION METHOD THEREFOR AND USE THEREOF” (Innovstone Therapeutics Limited, priority 2021, published 2025).
Where two headings read alike, the source gives them in different places.

How the values were obtained:
ATR enzyme = ATR enzyme (Homo sapiens (Human), UniProt Q13535); experiment: Inhibitory effect on ATR enzyme (HTRF, phospho-P53); type: biochemical; settings: 90 minutes incubation, 150 nM ATP final; read-out: IC50 for ATR enzyme inhibition
ATR enzyme, sequence (Q13535 whole entry): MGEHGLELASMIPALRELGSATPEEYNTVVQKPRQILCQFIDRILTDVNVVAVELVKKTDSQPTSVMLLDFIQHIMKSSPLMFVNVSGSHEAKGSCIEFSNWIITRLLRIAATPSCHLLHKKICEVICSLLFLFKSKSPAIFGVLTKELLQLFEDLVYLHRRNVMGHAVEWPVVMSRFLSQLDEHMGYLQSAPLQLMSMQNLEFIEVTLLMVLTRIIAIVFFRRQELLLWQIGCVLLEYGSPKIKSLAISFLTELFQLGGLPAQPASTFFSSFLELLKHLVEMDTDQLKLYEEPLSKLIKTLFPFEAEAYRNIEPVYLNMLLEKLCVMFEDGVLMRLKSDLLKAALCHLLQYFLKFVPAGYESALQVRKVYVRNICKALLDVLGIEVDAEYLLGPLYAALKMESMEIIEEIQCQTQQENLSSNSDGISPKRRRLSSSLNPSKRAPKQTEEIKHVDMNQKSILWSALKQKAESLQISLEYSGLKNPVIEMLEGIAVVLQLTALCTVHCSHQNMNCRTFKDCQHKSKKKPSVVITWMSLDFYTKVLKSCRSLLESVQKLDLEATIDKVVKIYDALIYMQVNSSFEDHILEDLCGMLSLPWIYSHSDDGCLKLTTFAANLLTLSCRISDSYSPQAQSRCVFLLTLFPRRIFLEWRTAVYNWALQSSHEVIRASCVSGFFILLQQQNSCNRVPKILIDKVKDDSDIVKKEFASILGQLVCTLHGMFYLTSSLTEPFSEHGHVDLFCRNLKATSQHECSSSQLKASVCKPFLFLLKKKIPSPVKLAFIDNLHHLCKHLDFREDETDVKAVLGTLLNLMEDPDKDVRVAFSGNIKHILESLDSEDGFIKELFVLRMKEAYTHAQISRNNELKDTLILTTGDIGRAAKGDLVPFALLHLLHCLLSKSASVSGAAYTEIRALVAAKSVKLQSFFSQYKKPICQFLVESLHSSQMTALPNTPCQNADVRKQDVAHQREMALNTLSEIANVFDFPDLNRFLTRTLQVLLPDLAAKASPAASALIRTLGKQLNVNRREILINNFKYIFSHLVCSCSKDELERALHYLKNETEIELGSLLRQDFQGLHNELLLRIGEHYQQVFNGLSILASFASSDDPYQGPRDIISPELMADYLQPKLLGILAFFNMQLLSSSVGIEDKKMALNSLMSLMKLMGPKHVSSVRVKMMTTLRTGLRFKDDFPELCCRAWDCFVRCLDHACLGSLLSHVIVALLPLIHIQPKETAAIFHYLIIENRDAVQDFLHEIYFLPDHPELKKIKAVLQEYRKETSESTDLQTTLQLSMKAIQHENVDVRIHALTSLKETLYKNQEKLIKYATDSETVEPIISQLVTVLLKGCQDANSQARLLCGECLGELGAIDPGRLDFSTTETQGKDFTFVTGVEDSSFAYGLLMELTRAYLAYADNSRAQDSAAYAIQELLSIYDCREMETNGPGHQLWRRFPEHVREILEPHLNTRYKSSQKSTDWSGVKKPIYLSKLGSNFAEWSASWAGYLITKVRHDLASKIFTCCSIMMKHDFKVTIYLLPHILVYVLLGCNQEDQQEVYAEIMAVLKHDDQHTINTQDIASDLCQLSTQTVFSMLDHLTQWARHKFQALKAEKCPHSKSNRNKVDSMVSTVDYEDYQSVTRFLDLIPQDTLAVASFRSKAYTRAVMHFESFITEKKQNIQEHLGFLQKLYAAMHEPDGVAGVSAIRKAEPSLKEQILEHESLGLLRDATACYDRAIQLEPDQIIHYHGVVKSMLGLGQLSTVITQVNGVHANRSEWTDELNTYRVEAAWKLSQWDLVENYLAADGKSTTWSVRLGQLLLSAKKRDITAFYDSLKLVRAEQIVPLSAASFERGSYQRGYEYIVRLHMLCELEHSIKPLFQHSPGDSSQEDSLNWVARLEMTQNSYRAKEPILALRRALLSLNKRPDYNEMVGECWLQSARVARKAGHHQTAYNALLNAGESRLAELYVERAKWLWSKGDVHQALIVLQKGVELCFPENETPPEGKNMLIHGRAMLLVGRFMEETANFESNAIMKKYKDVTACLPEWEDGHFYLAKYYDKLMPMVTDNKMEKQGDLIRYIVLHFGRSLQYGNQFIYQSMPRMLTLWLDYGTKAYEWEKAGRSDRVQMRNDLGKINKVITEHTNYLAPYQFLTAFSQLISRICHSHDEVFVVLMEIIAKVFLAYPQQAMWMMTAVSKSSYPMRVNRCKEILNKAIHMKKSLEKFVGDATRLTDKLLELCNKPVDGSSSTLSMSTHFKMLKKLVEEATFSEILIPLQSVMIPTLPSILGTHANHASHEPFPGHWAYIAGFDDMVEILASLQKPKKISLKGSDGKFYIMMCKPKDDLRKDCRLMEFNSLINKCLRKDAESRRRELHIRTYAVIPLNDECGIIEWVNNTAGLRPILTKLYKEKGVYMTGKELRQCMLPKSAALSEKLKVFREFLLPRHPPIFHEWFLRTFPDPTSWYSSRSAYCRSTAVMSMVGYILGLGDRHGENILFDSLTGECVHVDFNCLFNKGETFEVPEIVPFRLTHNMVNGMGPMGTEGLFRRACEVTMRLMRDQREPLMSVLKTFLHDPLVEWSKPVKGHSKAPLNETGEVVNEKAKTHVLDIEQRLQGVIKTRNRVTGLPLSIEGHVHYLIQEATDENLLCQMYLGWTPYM
ATR enzyme, sequence (Q8WXE1 whole entry partner): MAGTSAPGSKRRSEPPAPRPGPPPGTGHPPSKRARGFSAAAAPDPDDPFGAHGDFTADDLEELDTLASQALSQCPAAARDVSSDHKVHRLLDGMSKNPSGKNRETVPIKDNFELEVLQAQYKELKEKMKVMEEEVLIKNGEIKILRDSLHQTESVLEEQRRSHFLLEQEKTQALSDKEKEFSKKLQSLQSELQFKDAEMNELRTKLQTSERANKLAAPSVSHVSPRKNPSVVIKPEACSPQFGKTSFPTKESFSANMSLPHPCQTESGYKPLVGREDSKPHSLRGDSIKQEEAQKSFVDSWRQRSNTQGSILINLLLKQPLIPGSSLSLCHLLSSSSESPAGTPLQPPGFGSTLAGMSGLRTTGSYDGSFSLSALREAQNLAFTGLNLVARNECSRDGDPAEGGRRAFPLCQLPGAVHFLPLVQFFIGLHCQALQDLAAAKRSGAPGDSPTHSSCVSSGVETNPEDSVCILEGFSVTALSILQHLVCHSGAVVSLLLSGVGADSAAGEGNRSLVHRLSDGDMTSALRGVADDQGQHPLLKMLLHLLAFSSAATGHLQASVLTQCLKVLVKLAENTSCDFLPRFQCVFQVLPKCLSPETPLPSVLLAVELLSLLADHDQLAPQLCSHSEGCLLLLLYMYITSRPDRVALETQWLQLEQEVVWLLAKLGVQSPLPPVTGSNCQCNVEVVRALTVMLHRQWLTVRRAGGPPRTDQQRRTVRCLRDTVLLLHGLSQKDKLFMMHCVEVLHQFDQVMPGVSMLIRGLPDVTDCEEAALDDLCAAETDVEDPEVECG
Description: Test Example 1. Inhibitory Effect of Compounds of the Present Invention on ATR Enzyme
The following method is used to determine the inhibitory effect of the compounds of the present invention on the ATR enzyme. The experimental method is briefly described as follows:
1. ATR enzyme (Eurofins Pharma Discovery Services, 14-953M)
2. GST-tagged P53 protein (Eurofins Pharma Discovery Services, 14-952M)
15 nM ATR enzyme, 80 nM P53 protein, 300 nM ATP (the final concentrations were 40 nM and 150 nM, respectively), and small molecule compounds of various concentrations (the final concentrations (nM) of the ten points were 2985.0, 895.5, 298.5, 110.56, 33.17, 11.06, 4.09, 1.23, 0.41 and 0.15, respectively, and the final dimethyl sulfoxide concentration was 0.498%) were mixed and incubated at room temperature for 90 minutes. 10 μL of 2× cocktail buffer was added to the mixture of ATR, compound and substrate in the assay plate (anti-phospho-p53-Eu and anti-GST-d2 were diluted in the assay buffer). The resulting mixture was centrifuged at 1000 rpm for 30 seconds, and incubated overnight at 4° C. in the dark (a total of 20 μl in each well). The FRET signal (endpoint) was measured in the Envision instrument (HTRF 665/612 ratio was calculated at 665 nm emission and 612 nm emission). Data were processed using GraphPad software.
The inhibitory activity of the compounds of the present invention on the ATR enzyme can be determined by the test described above, and the measured IC50 values are shown in Table 1.

SNU-601 cells = experiment: SNU-601 cell proliferation experiment (CellTiter-Glo, intracellular ATP); type: cell-based; settings: SNU-601 human gastric cancer cells, 5 days, read-out: IC50 for inhibition of SNU-601 cell proliferation
Description: The following method is used to evaluate the inhibitory effect of the compounds of the present disclosure on SNU-601 cell proliferation according to the IC50 values by means of detecting the intracellular ATP content. The experimental method is briefly described as follows:
1. SNU-601, human gastric cancer tumor cells (Co-bioer, CBP60507)
SNU-601 cells were cultured in RPMI 1640 medium containing 10% FBS and passaged 2 to 3 times a week at a split ratio of 1:5 or 1:10. During passage, the cells were trypsinized and transferred to a centrifuge tube. The tube was centrifuged at 1000 rpm for 5 minutes, the supernatant medium was discarded, and fresh medium was added to resuspend the cells. 195 μL of cell suspension at a density of 5.128×10^3 cells/mL was added to a 96-well cell culture plate, and 200 μL of complete medium only was added to the periphery wells of the 96-well plate. The culture plate was incubated in an incubator for 24 hours (37° C., 5% CO2).
The sample to be tested was diluted to 2 mM with DMSO, diluted 3-fold serially to 10 concentrations. Blank and control wells were set. 10 μL of the solution containing the compound to be tested prepared in gradient concentrations was added to 50 μL of fresh medium. 5 μL of the above culture medium solution containing the compound was added to the culture plate. The culture plate was incubated in an incubator for 5 days (37° C., 5% CO2). 50 μL of CellTiter-Glo reagent was added to each well of the 96-well cell culture plate after discarding 100 μL/well, and the plate was shaken at room temperature in the dark for 10 min. The chemiluminescent signal values were read in PHERAstar, and data were processed using GraphPad software.
The inhibitory effect of the compounds of the present invention on SNU-601 cell proliferation can be determined by the test described above, and the measured IC50 values are shown in Table 3.

| IC50 (ATR enzyme) [nM] | IC50 (SNU-601 cells; 120 h) [nM] | IC50 (SNU-601 cells) [nM] | Compound |
| --- | --- | --- | --- |
| ≤ 10 | 10 to 100 | – | CC(=O)Nc1ccc(-c2cc(N3CCOC[C@H]3C)nc3c2cnn3-c2cc[nH]n2)cc1 [Example 30, (R)-N-(4-(6-(3-methylmorpholinyl)-1-(1H-pyrazolyl-3-yl)-1H-pyrazolyl[3,4-b]pyridin-4-yl)phenyl)acetamide] |
| ≤ 10 | 10 to 100 | – | CC(=O)C(=O)Nc1ccc(-c2cc(N3CCOC[C@H]3C)nc3c2cnn3-c2cc[nH]n2)cc1 [Example 31, (R)-N-(4-(6-(3-methylmorpholino)-1-(1H-pyrazol-3-yl)-1H-pyrazolo[3,4-b]pyridin-4-yl)phenyl)-2-oxopropanamide] |
| ≤ 10 | 10 to 100 | – | C[C@@H]1COCCN1c1cc(-c2ccc(NC(=O)C3CCC3)cc2)c2cnn(-c3cc[nH]n3)c2n1 [Example 32, (R)-N-(4-(6-(3-methylmorpholinyl)-1-(1H-pyrazolyl-3-yl)-1H-pyrazolyl[3,4-b]pyridin-4-yl)phenyl)cyclobutanecarboxamide] |
| ≤ 10 | 10 to 100 | – | C[C@@H]1COCCN1c1cc(-c2ccc(NC(=O)NC3CC3)cc2)c2cnn(-c3cc[nH]n3)c2n1 [Example 33, (R)-1-cyclopropyl-3-(4-(6-(3-methylmorpholinyl)-1-(1H-pyrazolyl-3-yl)-1H-pyrazolyl[3,4-b]pyridin-4-yl)phenyl)urea] |
| ≤ 10 | – | 10 to 100 | C[C@@H]1COCCN1c1cc(-c2cccc(N3CCCC3=O)c2)c2cnn(-c3cc[nH]n3)c2n1 [Example 58] |
| ≤ 10 | ≤ 10 | – | C[C@@H]1COCCN1c1cc(-c2ccc(N3CCCC3=O)cc2F)c2cnn(-c3cc[nH]n3)c2n1 [Example 59, (R)-1-(3-fluoro-4-(6-(3-methylmorpholino)-1-(1H-pyrazol-3-yl)-1H-pyrazolo[3,4-b]pyridin-4-yl)phenyl)pyrrolidin-2-one] |
| ≤ 10 | – | 10 to 100 | C[C@@H]1COCCN1c1cc(-c2ccc(N3CCCN(C)C3=O)cc2)c2cnn(-c3cc[nH]n3)c2n1 [Example 62] |
| ≤ 10 | – | 10 to 100 | C[C@@H]1COCCN1c1cc(-c2ccc(N3CCCNC3=O)cc2)c2cnn(-c3cc[nH]n3)c2n1 [Example 146] |
| ≤ 10 | 10 to 100 | – | CC(=O)Nc1cccc(-c2cc(N3CCOC[C@H]3C)nc3c2cnn3-c2cc[nH]n2)c1 [Example 149] |
| ≤ 10 | – | 10 to 100 | CCC(=O)Nc1ccc(-c2cc(N3CCOC[C@H]3C)nc3c2cnn3-c2cc[nH]n2)cc1 [Example 150] |
| ≤ 10 | – | 10 to 100 | C[C@@H]1COCCN1c1cc(-c2ccc(NC(=O)C3CCOC3)cc2)c2cnn(-c3cc[nH]n3)c2n1 (some centres unmarked) [Example 154] |
| ≤ 10 | – | 10 to 100 | C[C@@H]1COCCN1c1cc(-c2ccc(NC(=O)C3CC(N)C3)cc2)c2cnn(-c3cc[nH]n3)c2n1 (some centres unmarked) [Example 158] |
| ≤ 10 | – | 10 to 100 | C[C@@H]1COCCN1c1cc(-c2ccc(NC(=O)C3CC(O)C3)cc2)c2cnn(-c3cc[nH]n3)c2n1 (some centres unmarked) [Example 160] |
| ≤ 10 | – | 10 to 100 | CC(=O)N1CCCC(C(=O)Nc2ccc(-c3cc(N4CCOC[C@H]4C)nc4c3cnn4-c3cc[nH]n3)cc2)C1 (some centres unmarked) [Example 162] |
| ≤ 10 | – | 10 to 100 | Cc1cc(N2CCCCC2=O)ccc1-c1cc(N2CCOC[C@H]2C)nc2c1cnn2-c1cc[nH]n1 [Example 168] |
| ≤ 10 | – | 10 to 100 | C[C@@H]1COCCN1c1cc(-c2ccc(NC(=O)c3cccs3)cc2)c2cnn(-c3cc[nH]n3)c2n1 [Example 172] |
| – | 10 to 100 | – | C[C@@H]1COCCN1c1cc(-c2ccc(N3CCCCC3=O)c(F)c2)c2cnn(-c3cc[nH]n3)c2n1 [Example 191] |
| – | 10 to 100 | – | C[C@@H]1COCCN1c1cc(-c2ccc(NC(=O)c3cccnc3)cc2F)c2cnn(-c3cc[nH]n3)c2n1 [Example 195] |
| – | 10 to 100 | – | C[C@@H]1COCCN1c1cc(-c2ccc(N3CC4CCC(O4)C3=O)cc2F)c2cnn(-c3cc[nH]n3)c2n1 (some centres unmarked) [Example 199] |
| ≤ 10 | 10 to 100 | – | C[C@@H]1COCCN1c1cc(-c2ccc(N3CC4CCC(O4)C3=O)c(F)c2)c2cnn(-c3cc[nH]n3)c2n1 (stereo partly drawn) [Example 200, 3-(2-fluoro-4-(6-((R)-3-methylmorpholino)-1-(1H-pyrazol-3-yl)-1H-pyrazolo[3,4-b]pyridin-4-yl)phenyl)-8-oxa-3-azabicyclo[3.2.1]octan-2-one] |
| – | 10 to 100 | – | C[C@@H]1COCCN1c1cc(-c2ccc(NC(=O)N3CCCC3)cc2)c2cnn(-c3cc[nH]n3)c2n1 [Example 207] |

| IC50 (ATR enzyme) [nM] | IC50 (SNU-601 cells; 120 h) [nM] | IC50 (SNU-601 cells) [nM] | Compound |
| --- | --- | --- | --- |
| ≤ 10 | – | 10 to 100 | C[C@@H]1COCCN1c1cc(C2(C#N)CCN(c3cccc(F)c3)CC2)c2cnn(-c3cc[nH]n3)c2n1 [Example 208] |
| – | 10 to 100 | – | C[C@@H]1COCCN1c1cc(C#CC2CCCNC2)c2cnn(-c3ccn[nH]3)c2n1 (some centres unmarked) [Example 209] |
| – | 10 to 100 | – | C[C@@H]1COCCN1c1cc(-c2ccc(NC(=O)C3CCN(C)C3)cc2)c2cnn(-c3cc[nH]n3)c2n1 (some centres unmarked) [Example 213] |
| ≤ 10 | – | 10 to 100 | C[C@@H]1COCCN1c1cc(-c2ccc(NC(=O)c3cccnc3)cc2)c2cnn(-c3cc[nH]n3)c2n1 [Example 214] |
| – | 10 to 100 | – | CNC(=O)N(C)c1ccc(-c2cc(N3CCOC[C@H]3C)nc3c2cnn3-c2cc[nH]n2)cc1 [Example 215] |
| ≤ 10 | – | 10 to 100 | CCN1CCN(c2ccc(-c3cc(N4CCOC[C@H]4C)nc4c3cnn4-c3cc[nH]n3)cc2)C1=O [Example 216] |
| – | 10 to 100 | – | C[C@@H]1COCCN1c1cc(-c2ccc(NC(=O)C(F)F)cc2)c2cnn(-c3cc[nH]n3)c2n1 [Example 217] |
| ≤ 10 | 10 to 100 | – | C[C@@H]1COCCN1c1cc(-c2ccc(NC(=O)C3CC3)cc2)c2cnn(-c3cc[nH]n3)c2n1 [Example 218] |
| ≤ 10 | 10 to 100 | – | C[C@@H]1COCCN1c1cc(-c2ccc(NC(=O)N3CCNCC3)cc2)c2cnn(-c3cc[nH]n3)c2n1 [Example 219] |
| ≤ 10 | 10 to 100 | – | CCn1ccn(-c2ccc(-c3cc(N4CCOC[C@H]4C)nc4c3cnn4-c3cc[nH]n3)cc2)c1=O [Example 222] |
| ≤ 10 | 10 to 100 | – | C[C@@H]1COCCN1c1cc(-c2ccc(N3CCCCC3=O)cc2C#N)c2cnn(-c3cc[nH]n3)c2n1 [Example 224] |
| ≤ 10 | 10 to 100 | – | Cc1cc(-c2cc(N3CCOC[C@H]3C)nc3c2cnn3-c2cc[nH]n2)ccc1NC(=O)N1CCCC1 [Example 226] |
| ≤ 10 | 10 to 100 | – | CCC(=O)Nc1ccc(-c2cc(N3CCOC[C@H]3C)nc3c2cnn3-c2cc[nH]n2)c(F)c1 [Example 233] |
| ≤ 10 | 10 to 100 | – | C[C@@H]1COCCN1c1cc(-c2ccc(NC(=O)C3CC3)cc2F)c2cnn(-c3cc[nH]n3)c2n1 [Example 234] |
| ≤ 10 | 10 to 100 | – | C[C@@H]1COCCN1c1cc(-c2ccc(NC(=O)C(F)F)cc2F)c2cnn(-c3cc[nH]n3)c2n1 [Example 236] |
| ≤ 10 | 10 to 100 | – | C[C@@H]1COCCN1c1cc(-c2ccc(N3CC4CCC(O4)C3=O)cn2)c2cnn(-c3cc[nH]n3)c2n1 (some centres unmarked) [Example 237] |
| ≤ 10 | 10 to 100 | – | C[C@@H]1COCCN1c1cc(-c2ccc(N3CCCCC3=O)cc2F)c2cnn(-c3cc[nH]n3)c2n1 [Example 238] |
| – | 10 to 100 | – | C[C@@H]1COCCN1c1cc(-c2ccc(N3CCCCC3=O)cc2C(F)(F)F)c2cnn(-c3cc[nH]n3)c2n1 [Example 242] |
| – | 10 to 100 | – | C[C@@H]1COCCN1c1cc(-c2ccc(-c3ccnn3C)cc2F)c2cnn(-c3cc[nH]n3)c2n1 [Example 258] |
| – | 10 to 100 | – | C[C@@H]1COCCN1c1cc(-c2cc(C#N)c(N3CCCCC3=O)cc2F)c2cnn(-c3cc[nH]n3)c2n1 [Example 259] |
